Measured values taken from patent US9951035B2, “Selective matrix metalloproteinase inhibitors” (University of Notre Dame du Lac, priority 2014, dated 2018).
Entries after “also recorded” stand apart in the source; their conditions may differ. Counter-ions that a name gives are not always drawn. Like-named read-outs stand apart in the source and are kept apart here.

Experiments:
MMP-14 = MMP-14 (Homo sapiens (Human), UniProt P50281); experiment: Enzyme inhibition studies, MMP-14 catalytic domain; assay type: biochemical
MMP-1 = MMP-1 (Homo sapiens (Human), UniProt P03956); experiment: Enzyme inhibition studies, MMP-1 catalytic domain; assay type: biochemical; settings: at 100 μM; listed as ND-336, HCl salt
MMP-1, sequence (P03956 98-276): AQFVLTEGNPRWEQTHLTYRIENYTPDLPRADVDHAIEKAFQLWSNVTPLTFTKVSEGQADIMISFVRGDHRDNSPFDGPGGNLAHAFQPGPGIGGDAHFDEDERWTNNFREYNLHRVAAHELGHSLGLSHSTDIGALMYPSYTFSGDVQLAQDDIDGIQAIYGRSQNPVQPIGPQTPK

MMP-7 = MMP-7 (Homo sapiens (Human), UniProt P09237); experiment: Enzyme inhibition studies, MMP-7; assay type: biochemical; settings: at 100 μM; listed as ND-336, HCl salt
MMP-7, sequence (P09237 95-267): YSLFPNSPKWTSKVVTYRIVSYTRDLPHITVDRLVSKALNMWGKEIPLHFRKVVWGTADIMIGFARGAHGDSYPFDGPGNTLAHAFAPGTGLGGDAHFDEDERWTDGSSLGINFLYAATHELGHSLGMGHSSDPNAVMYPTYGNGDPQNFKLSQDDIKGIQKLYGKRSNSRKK

ADAM9 = ADAM9 (Homo sapiens (Human), UniProt Q13443); experiment: Enzyme inhibition studies, ADAM9; assay type: biochemical; settings: at 100 μM; listed as ND-336, HCl salt
ADAM9, sequence (Q13443 206-697): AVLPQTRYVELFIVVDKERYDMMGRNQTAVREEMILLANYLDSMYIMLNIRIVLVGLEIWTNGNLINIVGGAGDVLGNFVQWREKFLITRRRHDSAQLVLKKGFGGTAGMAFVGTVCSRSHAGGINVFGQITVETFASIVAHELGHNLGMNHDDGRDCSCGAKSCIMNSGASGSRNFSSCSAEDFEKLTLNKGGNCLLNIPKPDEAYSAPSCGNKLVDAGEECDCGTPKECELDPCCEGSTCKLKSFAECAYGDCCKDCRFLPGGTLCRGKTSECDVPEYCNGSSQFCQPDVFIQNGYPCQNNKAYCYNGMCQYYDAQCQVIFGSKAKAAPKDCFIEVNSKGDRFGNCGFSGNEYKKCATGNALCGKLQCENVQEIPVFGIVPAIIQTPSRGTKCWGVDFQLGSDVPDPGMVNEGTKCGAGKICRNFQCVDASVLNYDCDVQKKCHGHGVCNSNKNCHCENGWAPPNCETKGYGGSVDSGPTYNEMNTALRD

ADAM10 = ADAM10 (Homo sapiens (Human), UniProt O14672); experiment: Enzyme inhibition studies, ADAM10; assay type: biochemical; settings: at 100 μM; listed as ND-336, HCl salt
ADAM10, sequence (O14672 214-672): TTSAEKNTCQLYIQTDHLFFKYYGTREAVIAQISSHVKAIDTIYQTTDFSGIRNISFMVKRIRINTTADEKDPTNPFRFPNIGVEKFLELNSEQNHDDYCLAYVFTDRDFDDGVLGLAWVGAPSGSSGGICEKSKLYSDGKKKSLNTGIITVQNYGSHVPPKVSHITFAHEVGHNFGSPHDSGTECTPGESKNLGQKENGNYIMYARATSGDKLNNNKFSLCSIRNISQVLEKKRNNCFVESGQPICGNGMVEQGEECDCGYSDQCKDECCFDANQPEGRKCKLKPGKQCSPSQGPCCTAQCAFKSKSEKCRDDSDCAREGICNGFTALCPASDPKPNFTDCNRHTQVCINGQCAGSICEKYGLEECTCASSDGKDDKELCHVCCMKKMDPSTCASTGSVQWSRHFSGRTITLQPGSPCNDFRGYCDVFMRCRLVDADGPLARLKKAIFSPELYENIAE

[1] = Stability in buffers of the kinetic assays; assay type: physicochemical; settings: in words
Text: Human recombinant active MMP-2 and MMP-7, and the catalytic domains of MMP-3 and MMP-14/MT1-MMP were purchased from EMD Chemicals, Inc. (San Diego, Calif., USA); human recombinant catalytic domains of MMP-1, MMP-8, and MMP-9 were purchased from Enzo Life Sciences, Inc. (Farmingdale, N.Y., USA); human recombinant active ADAM9 and ADAM10 were purchased from R&D Systems (Minneapolis, Minn., USA). Fluorogenic substrates MOCAc-Pro-Leu-Gly-Leu-A2pr(Dnp)-Ala-Arg-NH2 (for MMP-2, MMP-7, MMP-9 and MMP-14) and MOCAc-Arg-Pro-Lys-Pro-Val-Glu-Nva-Trp-Arg-Lys(Dnp)-NH2 (for MMP-3) were purchased from Peptides International (Louisville, Ky., USA); Mca-KPLGL-Dpa-AR-NH2 (for MMP-1, MMP-8 and ADAM10) and Mca-PLAQAV-Dpa-RSSSR-NH2 (for ADAM9) were purchased from R&D Systems (Minneapolis, Minn., USA). […] Inhibitor stock solutions (10 mM) were prepared fresh in DMSO before enzyme inhibition assays. We followed the same methodology for enzyme inhibition studies as reported by Page-McCaw et al. (Nat. Rev. Mol. Cell Biol. 2007, 8, 221-233). Enzyme inhibition studies were carried out using a Cary Eclipse fluorescence spectrophotometer (Varian, Walnut Creek, Calif., USA). Compounds 4, 5, 6 and 7 were stable in the buffers that were used in the kinetic assays.

[2] = Pharmacokinetics and brain distribution after single iv dose
Protocol: Mice (male CD-1, 6-7 weeks old, ˜30 g body weight, specific pathogen free) were purchased from Charles River Laboratories, Inc. (Wilmington, Mass., USA).
Samples were analyzed by ultraperformance liquid chromatography (UPLC)/(+)electrospray ionization (ESI)-multiple-reaction monitoring (MRM) with a reversed phase C18 column (Acclaim® RSLC 120 C18, 2.2 μm, 120 Å, 2.1×100 mm, Dionex, Sunnyvale, Calif., USA).
Quantification of the compounds in plasma and brain was obtained using peak-area ratios of the compounds to the internal standard, and the linear-regression parameters obtained from the calibration curves.

[3] = Water solubility (filtrate of saturated aqueous solution, UPLC-MRM)
[4] = male, CD-1, mouse, in vivo, 5 mg/kg
[5] = male, CD-1, mouse, in vivo, iv, 5 mg/kg
[6] = plasma, 5 mg/kg single iv, mice

For `NCc1ccc(Oc2ccc(S(=O)(=O)CC3CS3)cc2)cc1` (stereo not drawn) [Compound 5, (4-(4-((Thiiran-2-ylmethyl)sulfonyl)phenoxy)phenyl)methanamine HCl salt], the Ki (MMP-14) was 120 ± 10 nM, the Ki (MMP-14; catalytic domain, slow-binding, Ki from koff/kon) was 120 nM and the Inhibition (MMP-1) was “Ki (MMP-1) 4% inhibition at 100 μM”. For the same molecule, the Inhibition (MMP-7) was “Ki (MMP-7) 1% inhibition at 100 μM”, the Inhibition (ADAM9) was “Ki (ADAM-9) 31% inhibition at 100 μM” and the Inhibition (ADAM10) was “Ki (ADAM-10) 14% inhibition at 100 μM”. The “stability in the buffers used in the kinetic assays” value [1] was “stable”, the “time brain levels above Ki for MMP-2” value ([2]; 5 mg/kg single iv, mice) was “at least 30 min” and the “time brain levels above Ki for MMP-9” value ([2]; 5 mg/kg single iv, mice) was “at least 30 min”. The “time plasma levels above Ki for MMP-2” value ([2]; 5 mg/kg single iv, mice) was “at least 30 min”, the “time plasma levels above Ki for MMP-9” value ([2]; 5 mg/kg single iv, mice) was “at least 30 min” and the Brain concentration ([2]; 2 min after 5 mg/kg single iv, mice) was 5.55 ± 2.38 pmol/mg tissue. It also gave a Brain concentration ([2]; 5 min after 5 mg/kg single iv, mice) of 2.97 ± 2.41 pmol/mg tissue, a Brain concentration ([2]; 10 min after 5 mg/kg single iv, mice) of 1.20 ± 0.50 pmol/mg tissue and a Brain concentration ([2]; 30 min after 5 mg/kg single iv, mice) of 0.213 ± 0.143 pmol/mg tissue. It also gave a Brain concentration ([2]; 60 min after 5 mg/kg single iv, mice) of 0.0368 ± 0.0232 pmol/mg tissue, a Brain concentration ([2]; 90 min after 5 mg/kg single iv, mice) of 0.0213 ± 0.0106 pmol/mg tissue and a Brain concentration ([2]; 120 min after 5 mg/kg single iv, mice) of 0.0158 ± 0.0125 pmol/mg tissue. For the same molecule, the Brain concentration ([2]; 240 min after 5 mg/kg single iv, mice) was 0.00531 ± 0.00402 pmol/mg tissue, the AUC0-last ([2]; brain, 5 mg/kg single iv, mice) was 57.7 pmol·min/mg and the “AUC0-∞” value ([2]; brain, 5 mg/kg single iv, mice) was 58.3 pmol·min/mg. The t1/2α ([2]; brain, 5 mg/kg single iv, mice) was 3.32 min, the t1/2β ([2]; brain, 5 mg/kg single iv, mice) was 75.3 min and the “crossing of the blood-brain barrier” value ([2]; in words, listed as ND-336, HCl salt) was “cross the blood-brain barrier; also recorded: crosses the BBB”. For the same molecule, the concentration at 2 min [2, 4] was 4350 ± 1100 nM, the concentration at 5 min [2, 4] was 3150 ± 1490 nM and the concentration at 10 min [2, 4] was 2390 ± 820 nM. The concentration at 30 min [2, 4] was 377 ± 116 nM, the concentration at 60 min [2, 4] was 57.4 ± 31.6 nM and the concentration at 90 min [2, 4] was 33.2 ± 6.5 nM. For the same molecule, the concentration at 120 min [2, 4] was 21.8 ± 5.4 nM, the concentration at 240 min [2, 4] was 6.94 ± 6.06 nM and the AUC(0-inf) [2, 5] was 1.23 µM·h. The AUC(0-t) [2, 5] was 1.22 µM·h, the Kp [2, 5] was 0.793 and the Vd [2, 5] was 2.76 L/kg. For the same molecule, the clearance [2, 5] was 202 mL/min/kg, the AUC0-last [2, 6] was 72.9 µM·min and the “AUC0-∞” value [2, 6] was 73.6 µM·min. For the same molecule, the CL [2, 6] was 202 mL/min/kg, the t1/2α [2, 6] was 6.47 min and the t1/2β [2, 6] was 68.0 min. For the same molecule, the Aq. solubility ([3]; HCl salt) was 4900 µg/mL, the Aq. solubility ([3]; listed as ND-336, HCl salt) was “Water Solubility 4.9 mg/mL” and the solubility ([3]; thermodynamic from solid) was 4900 µg/mL.
